Ends that are not written are not given here.
How the values were obtained:
IgA-α1AT complex = experiment: HPLC analysis of in vitro dissociation of purified IgA-α1AT complex; type: biochemical, human; details: 90 minutes at 37°C; for HPLC / HPLC %: minimum peptide concentration giving complex : free IgA ratio at 20% (base-line 14%); for HPLC %: Table 1; for HPLC minimum: Table 5, minimum concentration giving complex : free IgA ratio at 20% (base-line 14%), >500µM = no complex dissociation at highest concentration tested
Method: The ability of the peptides of the invention to dissociate purified IgA-α1AT complex in vitro was tested as described below. The anti-rheumatic drug D-penicillamine and other synthetic peptides were used as controls. […] The sample was monitored at wavelength 206nm at a flow rate of 1ml/minute with phosphate buffer (0.1M) pH 7.1. […] They represent the ability of the peptides to dissociate the IgA-α1AT complex in vitro. In these experiments, the base-lines level comprises a complex : free IgA ratio of 14% . The minimum concentration of peptide taken to produce a positive dissociation effect is that which results in a complex: free IgA ratio at 20%. In the results tables, all the peptide values are expressed in µMoles.

[1] = test system: alternative complement (C3) pathway; experiment: Inhibition of C3-activation: preventing IgA-α1AT complex from activating the alternative complement pathway, rabbit erythrocyte haemolysis read-out; type: biochemical, human; details: for C': minimum concentration of peptide needed to prevent C3 activation; for C' minimum: Table 5, minimum concentration needed to prevent C3 activation
Method: Various peptides were tested for their ability to prevent the IgA-α1AT complex from activating the alternative complement (C3) pathway.
The method of measuring the capacity to activate the alternative complement pathway by the non-immune IgA-α1AT complex and the subsequent inhibition of this activation by anti-rheumatic peptides is described below.
This method was based on the method described by Riches and Stanworth, Immunology Letters, 1980, 1, 363,366, with modification to miniaturise it thus allowing the assay to be carried out on microtitre plates.
The initial observation by Platts-Mills and Ishizaka (J Immunol. (1974) 113, 348,358) that low dilutions of fresh normal human serum, from which calcium had been removed by chelation with 10mM EGTA to block the classical complement pathway, caused greater than 90% haemolysis of unsensitised rabbit erythrocytes when incubated at 37°C was employed in this assay.
The non-immune complex IgA-α1AT had been shown in the past to be the only known soluble complex to activate the alternative pathway complement and […] of the rabbit erythrocytes. This inhibition required biologically active complex.
The buffers solutions required in this assay were (a) Total lysis buffer (1% Triton100 in ultra pure water), (b) Alternative pathway complement fixation diluent (APCFD) which was:- • 83 volumes CFD, DH 7.2 (1 oxoid tablet: 100ml UPW) • 10 volumes 0.1M EGTA pH 7.2 • 7 volumes MgCl2 pH 7.2
Blood was obtained by venipuncture from a healthy human individual. The blood was allowed to clot for 1 hour at room temperature and then stored overnight at 4°C. The serum was removed and stored at -70°C in lml aliquots. For use, the serum was defrosted and 100µl of 0.1m EGTA pH 7.2 and 70µl O.lm MgCl2 pH 7.2 was added.
Rabbit red blood cells (RBC) were obtained by venipuncture of a healthy rabbit and collected into 0.1M citrate buffer pH 6.2. The RBC were washed 3 times in citrate buffer and the cells were stored in this buffer which was changed every week. It was possible to store cells in this way for 3 weeks. Peptides
The peptides were synthesised as described in Example 1 and made up in UPW to lmM. They were kept frozen at -70°C prior to use.
This was prepared as previously described in Example 2. It was kept frozen in small aliquots prior to use.
Using a round bottomed welled flexible microtitre plate 100µl neat serum (with added EGTA and MgCl2) was added to the first wells in duplicate. This was double diluted out, with APCFD to give a volume of 50µl well. 8 test wells (+ duplicates) were sufficient. 8 wells were prepared as a positive control - (100µl 1% Triton/UPW). 8 wells were prepared as a negative control - (100µl APCFD (Blank)).
50µl of APCFD was added to the test wells and 50µl of 1% rabbit RBC was added to all wells. The plate was then incubated at 37°C for 30 minutes and then centrifuged for 10 minutes at 2000 rpm.
75µl of the supernatant was carefully removed and plated onto a flat bottom welled microtitre plate. The plates were then read at 410nm interference, 690nm reference. The zero or blank value was calculated as the mean value of negative control wells and using the mean of the positive control wells, the percentage lysis for serum dilutions was calculated. In future assays the serum dilution in which lysis was approx. 80% of Rb RBC was used. This was usually in the range 1:4 - 1:6 dilution (ie. lml serum : 4ml APCFD - 6ml APCFD).
A 1:1 dilution of IgA-α1AT complex was made with twice concentrated APCFD. 100µl of this 1:1 dilution of complex was added to the first wells in duplicate. This was double diluted out with APCFD to give 50 µl per well. 50µl of the predetermined dilution of serum (see (i) above) was added to each well. Positive and negative control wells as described in (a) above and wells containing serum alone were used as controls. The plates were incubated at 37°C for 30 minutes and then centrifuged at 2000 rpm for 1 minute. […]

[2] = test system: mouse macrophage cell line (PU 518); experiment: Macrophage inhibition assay: IgA-α1AT complex-stimulated release of lysosomal enzymes; type: cell-based; details: Table 5; head prints no unit, b70 says all values of the results tables are in µMoles; concentration needed to prevent 50% release of β-glucoromidase
Method: A mouse macrophage cell line (PU 518) was stimulated to release lysosomal enzymes by the addition of purified human IgA-α1AT complex. The degree to which this release was then inhibited by the peptides or other drugs was investigated, with the degree of inhibition being indicative of activity; the concentration of peptide or other test drugs giving 50% inhibition being recorded. Briefly the method was as follows:
25µl of peptide or drug was double diluted in […] + 10% foetal calf serum (FCS) in a sterile tissue culture 96 well plate. 25µl of IgA-α1AT complex in RPMI 1640 +10% FCS at about 0.2mg/ml was then added to all wells. 50µl of cells at a concentration of 2 x 10^6 cells/ml in RPMI 1640 + 10% FCS was then added to each well.
Control wells of cells alone and cells + IgA-α1AT complex were also prepared. The plate was then gently mixed and incubated overnight (16hr) at 37°C in a 4% CO2 atmosphere. Plates were then centrifuged at 1200 rpm for 10 minutes in a bench top centrifuge.
40µl of supernatant was then taken from each well and added to a 96 well polystyrene assay plate, to which was added 40µl of 160mM acetate buffer (pH 4.3) containing 2mM phenolphthalein-β-D-glucuronic acid. To obtain a standard curve, dilutions of phenolphthalein in acetate buffer from 100-5µg/ml were also added to separate wells in the assay plate.
The plates were then incubated at 37°C for 4 hours before 150µl of 0.2M glycine/NaOH buffer (pH 10.6) containing 0.2M NaCl was added to stop the reaction.
Plates were then shaken for 3 minutes before the optical density at 570nm was read on a plate reader, and the amount of β-D-glucuronic acid released from the cells calculated. The concentration of peptide or drug giving 50% inhibition of release was then noted.
The results for the macrophage inhibition assays are expressed as the concentration needed to prevent 50% release of β-glucoromidase.

Substance	HPLC (IgA-α1AT complex; Table 4)	C' ([1]; Table 4)	HPLC % (IgA-α1AT complex)	C' ([1]; Table 1)	also measured
HCKKE-NH2 [Peptide 150, HCKKEnh2]	50 µM	8 µM			
HCKKGD-NH2 [Peptide 121, HCKKGDnh2]	125 µM	62 µM			
HCKKGE-NH2 [Peptide 151, HCKKGEnh2]	50 µM	16 µM			
HCKKGGD-NH2 [Peptide 122, HCKKGGDnh2]	50 µM	31 µM			
HCKKGGE-NH2 [Peptide 152, HCKKGGEnh2]	10 µM	125 µM			
HDCKK-NH2 [Peptide 198, HDCKKnh2]			10 µM	3.9 µM	
HECKK-NH2 [Peptide 204, HECKKnh2]			10 µM	<1.95 µM	
HFCKK-NH2 [Peptide 208, HFCKKnh2]			10 µM	3.9 µM	
HFCKK-NH2 [Peptide 209, HFCKKnh2]				3.9 µM	
HPCKK-NH2 [Peptide 201, HPCKKnh2]			10 µM	3.9 µM	
HYCKK-NH2 [Peptide 199, HYCKKnh2]			10 µM	3.9 µM	
IQHCKK-NH2 [Peptide 134, IQHCKKnh2]					HPLC (IgA-α1AT complex; Table 3): 10 µM; C' ([1]; Table 3): 62 µM
IVLVDNKCKCAR [Peptide 89, reference compound]					HPLC minimum (IgA-α1AT complex): 50 µM; C' minimum [1]: 125 µM
NIQHCKK-NH2 [Peptide 135, NIQHCKKnh2]					HPLC (IgA-α1AT complex; Table 3): 10 µM; C' ([1]; Table 3): 31 µM
QHCKK-NH2 [Peptide 133, QHCKKnh2]					HPLC (IgA-α1AT complex; Table 3): 10 µM; C' ([1]; Table 3): 31 µM
Substance P [Peptide 36, reference compound]					HPLC minimum (IgA-α1AT complex): >500 µM; IC50 [2]: > 500 µM; C' minimum [1]: >500 µM

From patent EP0614464B1, “PEPTIDES AND ANTIBODIES FOR TREATMENT OF RHEUMATOID ARTHRITIS” (PEPTIDE THERAPEUTICS LIMITED, priority 1991, dated 1993)
